Active and inactive are the calls of the source.
Tests used:
Insulin-degrading enzyme [1] = target: T1, Insulin-degrading enzyme (Homo sapiens, UniProt P14735); assay: recombinant IDE activation, cell-free – biochemical, fluorescence polarization, counter-screen for IDE activator project, dose response (AID 588681)
T1 sequence (P14735 whole entry): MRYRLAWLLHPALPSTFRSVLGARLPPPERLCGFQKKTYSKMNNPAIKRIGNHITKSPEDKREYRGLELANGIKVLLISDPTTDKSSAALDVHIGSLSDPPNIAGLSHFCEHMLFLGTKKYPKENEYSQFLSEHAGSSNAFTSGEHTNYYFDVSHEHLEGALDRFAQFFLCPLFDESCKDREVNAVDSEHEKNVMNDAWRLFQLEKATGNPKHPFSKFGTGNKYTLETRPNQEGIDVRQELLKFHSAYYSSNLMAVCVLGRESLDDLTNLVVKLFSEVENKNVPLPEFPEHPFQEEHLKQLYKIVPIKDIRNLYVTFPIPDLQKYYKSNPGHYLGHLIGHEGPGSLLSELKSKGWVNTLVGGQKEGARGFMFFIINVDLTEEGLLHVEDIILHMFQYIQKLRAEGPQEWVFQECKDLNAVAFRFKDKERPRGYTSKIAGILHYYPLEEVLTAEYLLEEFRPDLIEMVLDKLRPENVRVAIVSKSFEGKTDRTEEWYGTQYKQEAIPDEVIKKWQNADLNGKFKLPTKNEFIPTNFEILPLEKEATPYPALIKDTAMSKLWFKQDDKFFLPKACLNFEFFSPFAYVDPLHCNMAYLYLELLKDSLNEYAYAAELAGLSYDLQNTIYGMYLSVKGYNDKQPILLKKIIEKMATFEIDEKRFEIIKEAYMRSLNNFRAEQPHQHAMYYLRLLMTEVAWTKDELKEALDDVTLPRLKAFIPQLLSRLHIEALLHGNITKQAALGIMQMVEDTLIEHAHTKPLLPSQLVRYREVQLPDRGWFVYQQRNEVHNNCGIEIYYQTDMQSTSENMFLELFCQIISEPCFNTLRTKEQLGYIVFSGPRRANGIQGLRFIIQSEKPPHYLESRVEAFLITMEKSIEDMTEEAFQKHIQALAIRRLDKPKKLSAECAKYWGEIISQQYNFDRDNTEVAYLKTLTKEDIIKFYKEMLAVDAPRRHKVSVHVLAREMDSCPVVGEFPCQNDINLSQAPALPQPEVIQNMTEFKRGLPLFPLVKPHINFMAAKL

Insulin-degrading enzyme [2] = target: T1, Insulin-degrading enzyme; assay: cellular IDE activation of Abeta substrate cleavage – fluorescence polarization, HEK cells, dose response (AID 588439); type: functional, cell-based
HEK293 [3] = assay: membrane integrity loss in HEK cells – cell-based, fluorescence, cytotoxicity control for IDE activator project, dose response (AID 588440); type: functional; conditions: Homo sapiens;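 further: cytotoxicity by LDH release measuring loss of membrane integrity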
HEK293 [4] = assay: optical interference in Abeta FP readout, dose response, artefact control for IDE activator project, biochemical, fluorescence polarization (AID 588442); type: functional, cell-based; conditions: Homo sapiens
Mu-type opioid receptor = Mu-type opioid receptor (Homo sapiens, UniProt P35372); type: functional, cell-based;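 further: U2OS cells with beta-arrestin recruitment to OPRM1 by beta-gal complementation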
Chain of Mu-type opioid receptor (P35372 whole entry): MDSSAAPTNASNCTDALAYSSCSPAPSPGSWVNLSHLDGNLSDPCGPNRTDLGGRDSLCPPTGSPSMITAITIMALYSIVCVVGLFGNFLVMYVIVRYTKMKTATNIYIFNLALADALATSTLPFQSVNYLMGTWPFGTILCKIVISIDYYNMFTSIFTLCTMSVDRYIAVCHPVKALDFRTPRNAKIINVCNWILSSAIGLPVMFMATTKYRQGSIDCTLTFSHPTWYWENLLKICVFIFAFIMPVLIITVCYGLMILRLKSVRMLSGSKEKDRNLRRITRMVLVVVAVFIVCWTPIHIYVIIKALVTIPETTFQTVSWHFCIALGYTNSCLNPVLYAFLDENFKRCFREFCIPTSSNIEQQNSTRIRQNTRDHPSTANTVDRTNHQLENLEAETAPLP

[5] = target: 5-hydroxytryptamine receptor 2A (Mus musculus, UniProt P35363); type: functional, cell-based;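 further: CHO-K1 cells with tagged receptor and beta-arrestin; agonist potency measured as compound-induced activation of the receptor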
[6] = target: Voltage-gated inwardly rectifying potassium channel KCNH2 (Homo sapiens, UniProt Q12809); conditions: Potency;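 further: confirmatory quantitative high-throughput screen measuring inhibition of hERG channel activity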
[7] = target: Peroxisome proliferator-activated receptor gamma/Nuclear receptor coactivator 2 (Homo sapiens, UniProt P37231); type: functional;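 further: agonist potency for raising coactivator recruitment to the receptor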
[8] = target: Peroxisome proliferator-activated receptor gamma/Nuclear receptor coactivator 1 (Homo sapiens, UniProt P37231); type: functional;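 further: agonist potency as compounds enhance coactivator SRC-1 recruitment to PPARgamma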
Chain of Peroxisome proliferator-activated receptor gamma/Nuclear receptor coactivator 1 (P37231 whole entry): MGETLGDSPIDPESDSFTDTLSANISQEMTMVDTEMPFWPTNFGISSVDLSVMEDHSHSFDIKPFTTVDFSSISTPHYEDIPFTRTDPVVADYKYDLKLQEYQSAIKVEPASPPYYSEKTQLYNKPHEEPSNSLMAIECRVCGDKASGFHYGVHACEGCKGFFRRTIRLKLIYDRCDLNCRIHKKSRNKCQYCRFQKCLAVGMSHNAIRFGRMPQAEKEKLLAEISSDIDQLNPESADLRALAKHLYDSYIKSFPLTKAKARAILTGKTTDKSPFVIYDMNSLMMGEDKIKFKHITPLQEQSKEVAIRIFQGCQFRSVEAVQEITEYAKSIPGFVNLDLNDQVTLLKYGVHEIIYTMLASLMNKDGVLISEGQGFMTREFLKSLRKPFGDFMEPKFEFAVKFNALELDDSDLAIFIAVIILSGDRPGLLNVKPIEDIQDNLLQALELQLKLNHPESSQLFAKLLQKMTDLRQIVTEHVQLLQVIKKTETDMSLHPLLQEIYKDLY
Chain of Peroxisome proliferator-activated receptor gamma/Nuclear receptor coactivator 1 (Q15788 whole entry, further chain): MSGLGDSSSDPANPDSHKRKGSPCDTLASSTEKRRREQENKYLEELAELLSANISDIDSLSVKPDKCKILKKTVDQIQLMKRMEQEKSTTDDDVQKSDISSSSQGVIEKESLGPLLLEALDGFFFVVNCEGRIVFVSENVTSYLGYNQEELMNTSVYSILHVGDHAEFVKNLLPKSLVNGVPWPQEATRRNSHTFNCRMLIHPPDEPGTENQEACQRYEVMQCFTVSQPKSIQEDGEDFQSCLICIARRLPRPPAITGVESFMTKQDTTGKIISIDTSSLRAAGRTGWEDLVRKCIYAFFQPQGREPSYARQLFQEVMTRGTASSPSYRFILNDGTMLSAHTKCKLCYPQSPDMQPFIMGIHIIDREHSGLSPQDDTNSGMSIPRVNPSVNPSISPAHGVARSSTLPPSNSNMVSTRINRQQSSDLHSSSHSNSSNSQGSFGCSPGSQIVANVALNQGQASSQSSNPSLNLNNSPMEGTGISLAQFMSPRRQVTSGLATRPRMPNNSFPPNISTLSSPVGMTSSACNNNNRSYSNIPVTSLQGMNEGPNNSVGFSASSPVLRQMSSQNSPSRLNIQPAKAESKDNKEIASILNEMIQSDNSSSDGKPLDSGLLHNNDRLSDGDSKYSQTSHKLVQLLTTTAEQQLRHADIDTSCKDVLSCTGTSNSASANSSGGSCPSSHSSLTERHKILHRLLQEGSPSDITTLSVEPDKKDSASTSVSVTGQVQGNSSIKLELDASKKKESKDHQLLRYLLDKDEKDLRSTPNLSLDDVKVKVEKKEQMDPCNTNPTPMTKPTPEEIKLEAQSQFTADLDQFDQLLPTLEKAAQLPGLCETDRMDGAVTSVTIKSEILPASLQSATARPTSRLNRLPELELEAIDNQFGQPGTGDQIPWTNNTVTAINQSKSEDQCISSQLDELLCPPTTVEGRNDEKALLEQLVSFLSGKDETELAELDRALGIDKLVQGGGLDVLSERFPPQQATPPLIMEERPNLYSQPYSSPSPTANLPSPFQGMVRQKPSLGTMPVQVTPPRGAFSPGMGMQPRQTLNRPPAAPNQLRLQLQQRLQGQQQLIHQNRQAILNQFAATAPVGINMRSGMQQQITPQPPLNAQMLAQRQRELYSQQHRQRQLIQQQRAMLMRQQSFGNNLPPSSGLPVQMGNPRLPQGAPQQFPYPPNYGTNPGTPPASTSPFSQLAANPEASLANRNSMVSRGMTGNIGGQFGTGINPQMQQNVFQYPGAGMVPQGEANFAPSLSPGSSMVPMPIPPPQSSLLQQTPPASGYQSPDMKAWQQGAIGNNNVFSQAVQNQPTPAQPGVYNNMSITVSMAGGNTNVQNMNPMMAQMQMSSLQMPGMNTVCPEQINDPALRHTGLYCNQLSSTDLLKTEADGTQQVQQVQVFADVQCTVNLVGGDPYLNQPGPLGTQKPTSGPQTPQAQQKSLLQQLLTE

[9] = target: Peroxisome proliferator-activated receptor gamma/Nuclear receptor coactivator 3 (Homo sapiens, UniProt P37231); type: functional;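 further: agonist potency for raising coactivator recruitment to the receptor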
Chain of Peroxisome proliferator-activated receptor gamma/Nuclear receptor coactivator 3 (P37231 whole entry): as the sequence (P37231 whole entry) above
Chain of Peroxisome proliferator-activated receptor gamma/Nuclear receptor coactivator 3 (Q9Y6Q9 whole entry, further chain): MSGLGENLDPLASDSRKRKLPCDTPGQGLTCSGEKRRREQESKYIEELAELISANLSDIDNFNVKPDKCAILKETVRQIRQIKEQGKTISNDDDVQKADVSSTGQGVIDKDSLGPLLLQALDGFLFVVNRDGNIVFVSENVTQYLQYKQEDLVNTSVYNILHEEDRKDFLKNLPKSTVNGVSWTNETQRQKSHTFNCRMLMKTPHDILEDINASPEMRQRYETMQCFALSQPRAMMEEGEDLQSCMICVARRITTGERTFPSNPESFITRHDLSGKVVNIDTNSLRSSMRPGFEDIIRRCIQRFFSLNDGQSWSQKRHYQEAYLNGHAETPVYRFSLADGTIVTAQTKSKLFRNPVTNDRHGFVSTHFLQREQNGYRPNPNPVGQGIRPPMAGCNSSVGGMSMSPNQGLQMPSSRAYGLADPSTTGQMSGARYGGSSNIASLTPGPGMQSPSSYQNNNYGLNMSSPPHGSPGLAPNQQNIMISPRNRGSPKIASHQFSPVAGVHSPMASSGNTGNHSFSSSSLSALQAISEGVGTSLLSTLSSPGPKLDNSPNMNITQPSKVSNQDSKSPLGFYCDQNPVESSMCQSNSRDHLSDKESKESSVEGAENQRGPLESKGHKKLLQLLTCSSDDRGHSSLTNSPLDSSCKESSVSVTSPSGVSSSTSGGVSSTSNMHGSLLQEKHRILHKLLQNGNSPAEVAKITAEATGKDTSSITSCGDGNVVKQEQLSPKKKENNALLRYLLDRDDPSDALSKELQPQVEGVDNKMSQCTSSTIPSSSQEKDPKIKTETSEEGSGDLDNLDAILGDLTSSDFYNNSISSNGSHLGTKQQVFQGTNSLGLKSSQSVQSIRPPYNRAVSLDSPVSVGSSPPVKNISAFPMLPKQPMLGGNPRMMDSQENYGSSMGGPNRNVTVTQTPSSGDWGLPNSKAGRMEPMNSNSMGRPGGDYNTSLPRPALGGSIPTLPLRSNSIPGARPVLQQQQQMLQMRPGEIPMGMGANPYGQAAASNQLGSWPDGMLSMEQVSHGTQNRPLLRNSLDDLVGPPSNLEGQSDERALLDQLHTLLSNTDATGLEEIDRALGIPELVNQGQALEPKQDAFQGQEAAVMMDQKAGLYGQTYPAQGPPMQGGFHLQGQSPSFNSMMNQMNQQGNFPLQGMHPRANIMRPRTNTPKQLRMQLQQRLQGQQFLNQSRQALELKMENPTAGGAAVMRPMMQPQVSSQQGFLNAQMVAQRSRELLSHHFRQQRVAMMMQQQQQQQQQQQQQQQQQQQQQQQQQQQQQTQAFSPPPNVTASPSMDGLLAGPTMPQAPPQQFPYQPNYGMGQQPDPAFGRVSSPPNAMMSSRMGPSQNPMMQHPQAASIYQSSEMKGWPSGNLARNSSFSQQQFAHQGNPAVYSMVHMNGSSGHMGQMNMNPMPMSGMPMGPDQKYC

SUMO-activating enzyme = SUMO-activating enzyme (Homo sapiens, UniProt Q9UBT2); assay: blockers of UBC9-mediated SUMO conjugation – biochemical, AlphaScreen, SUMOylation inhibitor project, confirmation (AID 2018); type: functional
[10] = viability of PTEN-deleted HCT116 cells – cell-based, HCT116 PTEN knockout, dose response (AID 1047); type: functional;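 further: HCT116 colon tumor cells with PTEN knocked out; cells exposed to compound for 60 hours before readout; potency for loss of cell viability measured by luminescence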
[11] = viability of HCT116 lacking mutant beta-catenin – cell-based, human colon tumor, dose response (AID 1045); type: functional;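 further: HCT116 colon tumor cells with beta catenin knocked out; cells exposed to compound for 60 hours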
[12] = target: Beta-2 adrenergic receptor (Homo sapiens, UniProt P07550); assay: ADRB2 activation measured by internalization – cell-based, FAP fluorogen, flow cytometry, cherry pick 1, dose response (AID 588763); type: functional
Chain of Beta-2 adrenergic receptor (P07550 whole entry): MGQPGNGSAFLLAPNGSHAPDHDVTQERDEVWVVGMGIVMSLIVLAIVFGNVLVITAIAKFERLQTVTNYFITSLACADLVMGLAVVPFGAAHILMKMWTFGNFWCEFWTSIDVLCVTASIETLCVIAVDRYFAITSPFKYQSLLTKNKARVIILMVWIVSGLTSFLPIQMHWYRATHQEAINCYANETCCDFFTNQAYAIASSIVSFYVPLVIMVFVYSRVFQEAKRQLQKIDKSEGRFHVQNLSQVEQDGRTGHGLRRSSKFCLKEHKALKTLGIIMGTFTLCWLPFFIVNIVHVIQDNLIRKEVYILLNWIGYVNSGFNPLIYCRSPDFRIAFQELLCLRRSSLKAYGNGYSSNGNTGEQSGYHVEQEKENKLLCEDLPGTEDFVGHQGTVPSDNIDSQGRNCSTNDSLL

[13] = target: T2, Calpain-2 catalytic subunit (Sus scrofa, UniProt P43367); assay: m-calpain protease blockers, concentration series – biochemical, fluorogenic peptide substrate, dose response (AID 1420); type: functional
T2 sequence (P43367 whole entry): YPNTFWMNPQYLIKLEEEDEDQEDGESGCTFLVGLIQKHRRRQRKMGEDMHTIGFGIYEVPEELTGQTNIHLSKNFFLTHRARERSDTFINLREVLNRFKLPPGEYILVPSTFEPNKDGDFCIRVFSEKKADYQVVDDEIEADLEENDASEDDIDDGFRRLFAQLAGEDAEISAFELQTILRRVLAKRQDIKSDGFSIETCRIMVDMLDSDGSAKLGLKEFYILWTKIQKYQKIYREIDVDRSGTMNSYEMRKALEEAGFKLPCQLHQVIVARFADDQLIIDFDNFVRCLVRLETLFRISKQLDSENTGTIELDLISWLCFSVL

Cysteine protease ATG4B = Cysteine protease ATG4B (Homo sapiens, UniProt Q9Y4P1); type: functional;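 further: Fluorescence-based dose-response confirmation assay measuring inhibition of ATG4B activity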
Phospholipase A2 = Phospholipase A2 (Homo sapiens, UniProt P04054); type: functional;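 further: confirmatory dose-response counterscreen on phospholipase A2, testing hits that came from an ultra-high-throughput screen for ATG4B inhibitors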
Chain of Phospholipase A2 (P04054 whole entry): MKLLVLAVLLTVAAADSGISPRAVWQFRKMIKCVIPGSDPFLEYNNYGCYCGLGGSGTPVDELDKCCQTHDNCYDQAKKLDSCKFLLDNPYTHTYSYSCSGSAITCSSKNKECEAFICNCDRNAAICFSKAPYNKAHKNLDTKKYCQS

Structure (SMILES): Cc1ccc(Cn2nc(C)c(C(=O)N3CCN(S(=O)(=O)/C=C/c4ccccc4)CC3)c2C)cc1
- EC50 (Insulin-degrading enzyme [1]): > 54.7 µM (inactive)
- EC50 (Insulin-degrading enzyme [2]): > 54.7 µM (inactive)
- IC50 (HEK293 [3]): > 89.2 µM (inactive)
- EC50 (HEK293 [4]): > 54.7 µM (inactive)

Structure (SMILES): CCCN1CC[C@@H]2c3cc(O)ccc3CC[C@@H]21
- EC50 (Mu-type opioid receptor): 92.5 µM (inactive)
- EC50 [5]: 76.1 µM (inactive)
- AC50 [6]: 35.5 µM (inconclusive)

Structure (SMILES): O=C(Nc1ccc2oc(-c3ccc4ccccc4c3)nc2c1)c1ccc2c(c1)OCCO2
- EC50 [7]: 22.1 µM (not active)
- EC50 [8]: 27.1 µM (not active)
- EC50 [9]: 37.1 µM (not active)
- IC50 (SUMO-activating enzyme): 38.9 µM (active)
- EC50 [10]: 12.4 µM (active)
- EC50 [11]: 18.4 µM (active)
- EC50 [12]: 5.58 µM (active)

Structure (SMILES): CC1CCC(NC(=O)CCS(=O)(=O)c2ccc3c(c2)CCN3C(=O)C2CC2)CC1 (stereo not drawn)
- EC50 [12]: 0.522 µM (active)

Structure (SMILES): O=C(COC(=O)c1cc(Cl)ccc1[N+](=O)[O-])NCc1ccc(Cl)cc1Cl
- IC50 [13]: 6.14 µM (not active)
- IC50 (Cysteine protease ATG4B): 16.3 µM (active)
- IC50 (Phospholipase A2): 11.2 µM (active)
